One compound from patent US20060019270A1, “Global DNA methylation assessment using bisulfite PCR” (Board of Regents The University of Texas System, priority 2004, published 2006) can be followed below.

The test system of test [1] is LINE-1 methylation in RKO cells. Nature of the test: COBRA (HinfI) of LINE-1 PCR, RKO cells treated with DAC. In kind it is cell-based, human. To be noted: 5 μM DAC for three days, decrease from 67%. The method, then: (§1) Hct116, RKO and SW48, colon cancer cell lines (American Type Culture Collection, Manassas, Va.), were cultured using standard methods. Cells were treated with 5 μM 5-aza-2′deoxycytidine (DAC) for three days prior to being harvested. DNA from cell lines and peripheral blood leukocytes was extracted using phenol-chloroform extraction methods well known to one with skill on the art.
Bisulfite modification of genomic DNA is known in the art (see Clark et. al, 1994). In brief, 1.5 μg prepared 10 mM hydroquinone (Sigma) and 520 μl of 3M Sodium Bisulfite (Sigma) at pH=5.0 were added and mixed. The samples were overlayed with mineral oil to prevent evaporation and incubated at 50° C. for 16 hours. The bisulfite treated DNA was isolated using Wizard DNA Clean-Up System (Promega). The DNA was eluted by 50 μl of warm water and 5.5 μl of 3M NaOH were added for 5 minutes. The DNA was ethanol precipitated with glycogen as a carrier and resuspended in 20 μl water. Bisulfite treated DNA was stored at −20° C. until ready for use. […]
In order to test whether Alu element […] LINE-1 methylation could approximate global methylation, COBRA, restriction digestion of the repetitive element PCR product, was used to quantitate DNA methylation in cell lines treated with 5-aza-2′deoxycytidine (DAC) (FIG. 3). […] Thus both assays reliably detected inhibition of methylation induced by DAC. […]

The test system of test [2] is Alu element methylation in Hct116 cells. Nature of the test: COBRA (MboI) of Alu repetitive element PCR, Hct116 cells treated with DAC. In kind it is cell-based, human. To be noted: 5 μM DAC for three days, 29% prior to treatment. The procedure:
as §1
Bisulfite modification of genomic DNA is known in the art (see Clark et. al, 1994). In brief, 1.5 μg prepared 10 mM hydroquinone (Sigma) and 520 μl of 3M Sodium Bisulfite (Sigma) at pH=5.0 were added and mixed. The samples were overlayed with mineral oil to prevent evaporation and incubated at 50° C. for 16 hours. […] Bisulfite treated DNA was stored at −20° C. until ready for use.
Methylation analysis of Alu repetitive elements was performed initially by the COBRA assay. […] The digested PCR product was then separated by polyacrylamide gel electrophoresis or the PCR products were quantitated using a capillary electrophoresis system, an Agilent 2100 Bioanalyzer (Agilent Technologies, Palo Alto, Calif.).
In order to test whether Alu element […] LINE-1 methylation could approximate global methylation, COBRA, restriction digestion of the repetitive element PCR product, was used to quantitate DNA methylation in cell lines treated with 5-aza-2′deoxycytidine (DAC) (FIG. 3). […]

In the case of `Nc1ncn([C@H]2C[C@H](O)[C@@H](CO)O2)c(=O)n1` [decitabine, 5-aza-2′-deoxycytidine], in test [1], the “LINE-1 methylation after treatment with DAC” value is 29%. Moreover, in test [2], the “Alu element methylation after treatment with DAC” value is 16%.
